One substance from patent publication US8496928B2, “Method for preventing and treating cardiovascular diseases with BRCA1” (priority 2008, dated 2013) can be followed below.

Holding throughout (assay type): cell-based, human
The test system of one assay is HUVECs. The assay can be described thus: HUVEC migration assay. The note with it: TNFα 20 ng/ml. The procedure:
In FIG. 24A ad-null or ad-BRCA1 infected cells were trypsinized and seeded in the presence and absence of TNFα (20 ng/ml) on coated inserts and a colorimetric assay was performed after 24 hours. Migration was calculated as a percentage of ad-null controls. (n=4, **p<0.01). In FIG. 24B, ad-null or ad-BRCA1 infected HUVECs were seeded onto matrigel in the presence or absence of TNFα (20 ng/ml). Images were taken 5 hours after seeding (original magnification 20×). In FIG. 24C data was semi-quantitatively analyzed by counting tubular structures in four fields per group. Data is presented as mean±SD (n=3 in triplicate, *p<0.05, **p<0.01). HUVECs infected with ad-null or ad-BRCA1 were treated for 24 hours with TNFα (20 ng/ml). VCAM1 (FIG. 24D, FIG. 24E), ICAM1 (FIG. 24F, FIG. 24G) and E-selectin (FIG. 24H, FIG. 24I) protein and transcript expression were determined in cell extracts via western blots and real-time PCR, respectively. […] Data are expressed as mean±SD (n=3, **p<0.01).
The migratory function of HUVECs was determined with the CytoSelect™ 24-Well Cell Migration Fluorometric Assay (Cell Biolabs). […] Following 12 hours at 37° C., migratory cells were dissociated from the underside of the insert membrane, lysed and stained with the Lysis Buffer/CyQuant® GR dye solution before being fluorescently quantified. […]

The subject of the next assay is eNOS, Akt, VEGFa. The assay can be described thus: eNOS/phospho-eNOS, Akt/phospho-Akt and VEGFa expression in HUVECs. As to conditions: TNFα treatment. The procedure: FIGS. 28A through 28E show eNOS/phospho-eNOS, Akt/phospho-Akt and VEGFa protein and RNA expression. Total protein and RNA were extracted from ad-null or ad-BRCA1 infected HUVECs treated thereafter with TNFα for 24 hours. As shown in FIGS. 28A and 28C, TNFα markedly elevated eNOS protein levels in BRCA1-overexpressing cells. […] Data are presented as mean±SEM of three independent experiments (*p<0.05, **p<0.01).
BRCA1 also promoted eNOS, phospho-eNOS, phospho-Akt and VEGFa expression. Since eNOS is essential for endothelial function, the potential regulation of endothelial nitric oxide synthase (eNOS) expression and phosphorylation by BRCA1 was examined via western blot analysis.
Western blot analysis was performed according to standard procedures. Proteins from whole cell lysates of HUVECs were resolved on SDS-polyacrylamide gels and transferred to nitrocellulose membranes (Bio-Rad). Membranes were probed with primary antibodies from Santa Cruz (BRCA1), Cell Signaling (p53, p21, Ser1177-phospho-eNOS, Akt, Ser473-phospho-Akt, cleaved caspase-3), Chemicon (GADD45a, GAPDH) and BD (eNOS). […]
Total RNA extracted from HUVECs were reverse transcribed for quantitative assessment of VCAM1, ICAM1, E-selectin and VEGFa expressions by real-time PCR using the primer pairs listed in Table 4.

The test system of a further assay is GADD45, p21 and p53. The assay can be described thus: Western blot of GADD45, p21 and p53 in HUVECs. The note with it: TNFα. On the procedure:
In FIG. 25A cell cycle progression was assessed after adenoviral (ad-null or ad-BRCA1) infection of HUVECs and 24 hours of TNFα (20 ng/ml) treatment followed by Propidium Iodide staining coupled with flow cytometry. […] GAPDH was used as a loading control.
Western blot analysis was performed according to standard procedures. Proteins from whole cell lysates of HUVECs were resolved on SDS-polyacrylamide gels and transferred to nitrocellulose membranes (Bio-Rad). Membranes were probed with primary antibodies from Santa Cruz (BRCA1), Cell Signaling (p53, p21, Ser1177-phospho-eNOS, Akt, Ser473-phospho-Akt, cleaved caspase-3), Chemicon (GADD45a, GAPDH) and BD (eNOS). Immunoblots were incubated with the appropriate horseradish peroxidase-associated secondary antibodies before signals were visualized by chemiluminescence via the ECL detection system (GE Healthcare).
A general note: In western blotting, separated proteins are transferred to a membrane and probed.

On to TNFα, for which the “migratory capacity of HUVECs” value with HUVECs is listed as “significantly hampered”. Also, the eNOS protein levels entry in the assay on eNOS, Akt, VEGFa is on record as “significant reduction”. The “protein levels of p53 and GADD45” value in the assay on GADD45, p21 and p53 was “no influence”. In addition, the p21 protein levels result with GADD45, p21 and p53 (in the presence and absence of BRCA1 overexpression) was “significantly elevate”.
